In brackets after ≈: the same amount, converted by molar mass.

Test [1] deals with Proteus mirabilis. The test is described as follows: Antimicrobial activity against PpmrI knockout mutant Proteus mirabilis dIp after 16 to 18 hrs by broth microdilution method. It counts as functional. Background: In broth dilution the organism is exposed to a series of concentrations in liquid medium.
The test system of test [2] is Proteus mirabilis. The test is described as follows: Antimicrobial activity against Proteus mirabilis I2 mutant after 16 to 18 hrs by broth microdilution method. Format: functional, organism-based.
Test [3] deals with Proteus mirabilis. Briefly: Antimicrobial activity against PpmrI knockout mutant Proteus mirabilis dIpc complemented with PPmrI gene after 16 to 18 hrs by broth microdilution method. It counts as functional.
The test system of test [4] is Proteus mirabilis. Briefly: Antimicrobial activity against wild type Proteus mirabilis N2 […] after 16 to 18 hrs by broth microdilution method. Format: functional.

For orientation: MIC means the least concentration at which growth counts as inhibited. Low values mean greater potency, high ones weaker potency. As for POLYMYXIN B, the MIC in the test with Proteus mirabilis [1] and against Proteus mirabilis [2] was 4 µg/mL throughout.

Turning to `C[C@@H](O)[C@H]1C(=O)N2C(C(=O)O)=C(SCCNC=N)C[C@H]12` [IMIPENEM ANHYDROUS], the minimum inhibitory concentration (MIC) against Proteus mirabilis [3] was 2 µg/mL (≈ 6.68 µM); against Proteus mirabilis [4], 2 µg/mL (≈ 6.68 µM); in the test with Proteus mirabilis [1], 0.25 µg/mL (≈ 0.835 µM).

Turning to `CC1(C)S[C@@H]2[C@H](NC(=O)[C@H](N)c3ccccc3)C(=O)N2[C@H]1C(=O)O` [AMPICILLIN], the MIC against Proteus mirabilis [3], with Proteus mirabilis [4] and against Proteus mirabilis [1] was 16 µg/mL (≈ 45.8 µM) throughout.

As to GENTAMICIN, the MIC in the test with Proteus mirabilis [3], against Proteus mirabilis [4] and with Proteus mirabilis [1] was 4 µg/mL in each case.

As to `CN(C)[C@@H]1C(O)=C(C(N)=O)C(=O)[C@@]2(O)C(O)=C3C(=O)c4c(O)cccc4[C@@](C)(O)[C@H]3C[C@@H]12` [TETRACYCLINE], the MIC against Proteus mirabilis [3], with Proteus mirabilis [4] and in the test with Proteus mirabilis [1] was 32 µg/mL (≈ 72 µM) throughout.

The values are drawn from ChEMBL document CHEMBL1255413, “Proteus mirabilis pmrI, an RppA-regulated gene necessary for polymyxin B resistance, biofilm formation, and urothelial cell invasion” (2010).
